In series [1] the target is T1, Farnesyl diphosphate synthase (Toxoplasma gondii, UniProt Q197X6).
T1 sequence (Q197X6 whole entry): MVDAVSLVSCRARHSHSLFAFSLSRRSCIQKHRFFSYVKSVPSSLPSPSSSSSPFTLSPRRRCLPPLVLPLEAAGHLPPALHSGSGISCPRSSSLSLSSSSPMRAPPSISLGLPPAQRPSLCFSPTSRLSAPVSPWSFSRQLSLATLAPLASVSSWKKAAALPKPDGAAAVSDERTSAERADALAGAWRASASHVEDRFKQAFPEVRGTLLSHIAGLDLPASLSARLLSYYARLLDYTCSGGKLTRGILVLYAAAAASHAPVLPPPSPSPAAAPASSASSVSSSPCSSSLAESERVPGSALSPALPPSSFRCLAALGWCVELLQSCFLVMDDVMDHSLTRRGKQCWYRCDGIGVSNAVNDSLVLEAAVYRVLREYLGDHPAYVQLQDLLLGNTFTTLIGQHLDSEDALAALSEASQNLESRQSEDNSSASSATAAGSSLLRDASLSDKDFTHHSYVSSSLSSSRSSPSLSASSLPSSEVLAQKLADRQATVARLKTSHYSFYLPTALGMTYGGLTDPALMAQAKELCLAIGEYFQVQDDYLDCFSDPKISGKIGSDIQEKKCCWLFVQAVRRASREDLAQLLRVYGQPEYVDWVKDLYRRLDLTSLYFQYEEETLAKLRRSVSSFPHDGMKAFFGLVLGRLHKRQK
The experiment in a line: Inhibition of Toxoplasma gondii FPPS using DMAPP as substrate incubated for 30 mins measured by scintillation counting.

The subject of series [2] is Toxoplasma gondii. The experiment in a line: Antiparasitic activity against Toxoplasma gondii tachyzoites infected in human TerT cells assessed as decrease in parasite viability by red fluorescent protein based fluorescence method. Particulars: read-out: ED50 (the source's name). It is filed as functional.
A short description of series [3]: Cytotoxicity against African green monkey Vero cells assessed as decrease in cell viability after 3 to 4 days by alamar blue assay. Particulars: chlorocebus sabaeus, read-out: ED50 (the source's name). Format: cell-based. (In general: The colour change of resazurin is a common sign of viable cells or microbes.)
Series [4] deals with T2, Farnesyl diphosphate synthase (Trypanosoma cruzi, UniProt Q8WS26).
T2 sequence (Q8WS26 whole entry): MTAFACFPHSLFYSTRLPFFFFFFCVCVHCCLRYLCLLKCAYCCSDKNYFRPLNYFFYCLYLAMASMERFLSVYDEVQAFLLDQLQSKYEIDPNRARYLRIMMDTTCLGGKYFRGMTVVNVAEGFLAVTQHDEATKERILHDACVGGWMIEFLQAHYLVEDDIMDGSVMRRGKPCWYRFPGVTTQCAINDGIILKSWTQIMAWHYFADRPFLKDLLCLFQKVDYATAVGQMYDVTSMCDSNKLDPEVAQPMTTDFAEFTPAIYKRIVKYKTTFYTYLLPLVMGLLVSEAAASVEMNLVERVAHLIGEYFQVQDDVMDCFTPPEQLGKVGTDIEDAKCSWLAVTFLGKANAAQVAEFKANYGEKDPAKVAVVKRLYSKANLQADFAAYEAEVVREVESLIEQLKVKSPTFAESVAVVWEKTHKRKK
Kind of series: Inhibition of Trypanosoma cruzi FPPS using DMAPP as substrate incubated for 30 mins measured by scintillation counting.

For another series, the system named is Trypanosoma cruzi. The experiment in a line: Antiparasitic activity against Trypanosoma cruzi amastigote infected in African green monkey Vero cells decrease in parasite viability measured at day 3 of post infection by red fluorescent protein based fluorescence method. It is filed as functional. Particulars: 72 h, read-out: ED50 (the source's name).
Series [5] concerns Vero. Kind of series: Cytotoxicity against African green monkey Vero cells assessed as decrease in cell viability at 5 to 10 uM after 3 to 4 days by alamar blue assay. The settings on record: chlorocebus sabaeus. It is filed as cell-based.
The subject of series [6] is Vero. The experiment in a line: Cytotoxicity against African green monkey Vero cells assessed as decrease in cell viability at 2.5 uM after 3 to 4 days by alamar blue assay. Format: cell-based. Particulars: chlorocebus sabaeus.
The test system of series [7] is Toxoplasma gondii. The experiment in a line: Antiparasitic activity against Toxoplasma gondii RH tachyzoites infected in ip dosed Webster mouse assessed as increase in survival rate administered daily starting on day 6 post infection for 10 days and measured 30 days post infection (reference value: 9 to 12 days). Format: functional.

As for `CCCCCCCCCNCC(F)(P(=O)(O)O)P(=O)(O)O`, the results for the IC50 in series [1] and in series [4] were 0.051 µM and 0.034 µM, respectively. Further, in the series with Toxoplasma gondii [2], the EC50 was 2.24 µM. The CC50 in series [3] came out at 15 µM.
As for `CCCCCCCNCC(F)(P(=O)(O)O)P(=O)(O)O`, the EC50 in the series on Trypanosoma cruzi and with Toxoplasma gondii [2] was over 10 µM each time. Moreover, the IC50 worked out at 0.088 µM in series [1] and 0.071 µM in series [4].
Consider `CCCCCCCCCCCNC(P(=O)(O)O)P(=O)(O)O`, for which, in series [3], the CC50 is 10 µM. The values for the Activity result in the series on Vero [5] and in the series on Vero [6] were “Toxic” and “Non-Toxic”, respectively.
Take `CCCCNCC(F)(P(=O)(O)O)P(=O)(O)O`: the EC50 in the series on Trypanosoma cruzi and with Toxoplasma gondii [2] was over 10 µM each time. The IC50 in series [1] came out at 0.286 µM; in series [4], 0.173 µM. In addition, in series [3], the CC50 was over 200 µM.
For the compound `CCCCCCCCC(F)(P(=O)(O)O)P(=O)(O)O`, the EC50 with Trypanosoma cruzi was over 10 µM; in the series with Toxoplasma gondii [2], 2.67 µM. In series [4], this compound yielded an IC50 of over 1 µM.
For `CCCCCCCCCCCS(=O)(=O)CC(P(=O)(O)O)P(=O)(O)O`, in the series with Toxoplasma gondii [2], the EC50 is 0.38 µM.
As for `CCCCCCCCNCC(O)(P(=O)(O)O)P(=O)(O)O`, the EC50 is over 10 µM with Trypanosoma cruzi and 2 µM in the series on Toxoplasma gondii [2]. The compound also returned an IC50 in series [4] of over 10 µM.
For `CCCCCCCCNCC(F)(P(=O)(O)O)P(=O)(O)O`, the EC50 is over 10 µM with Trypanosoma cruzi and 4.01 µM in the series on Toxoplasma gondii [2]. Besides, the IC50 in series [1] was found to be 0.079 µM; in series [4], 0.085 µM. In series [3], the CC50 was 162 µM.
Take `CCCCCCCCCCC[S+]([O-])CC(P(=O)(O)O)P(=O)(O)O` (centres undefined): the EC50 in the series with Toxoplasma gondii [2] was determined as 0.53 µM.
Still for that read-out and setting: with `CC1CCC(NCC(P(=O)(O)O)P(=O)(O)O)CC1` (centres undefined) the figure was over 20 µM.
Same read-out and setting: with `CCCCCCNCC(P(=O)(O)O)P(=O)(O)O` the figure was 9.4 µM.
The same measure, in the same setting: as for `CCCCCCCCCCCCNCC(P(=O)(O)O)P(=O)(O)O`, the figure is 6.23 µM.
As to `CCCCCCCNCC(P(=O)(O)O)P(=O)(O)O`, the EC50 in the series on Trypanosoma cruzi is 10 µM; in the series with Toxoplasma gondii [2], over 50 µM.
In series [1], `CCCCCCCCCCS(=O)(=O)CC(P(=O)(O)O)P(=O)(O)O` gave a concentration for half-maximal inhibition (IC50) of 0.27 µM. Also, in the series on Toxoplasma gondii [2], the EC50 was determined as 0.11 µM. Besides, the median effective dose (ED50) in the series on Toxoplasma gondii [7] was found to be 0.02 mg/kg.
Take `O=P(O)(O)C(CNC1CCCC1)P(=O)(O)O`: the EC50 in the series with Toxoplasma gondii [2] was over 20 µM.
With `CCCCCCCCCC(F)(P(=O)(O)O)P(=O)(O)O`, the EC50 in the series with Trypanosoma cruzi and with Toxoplasma gondii [2] was over 10 µM each time. Besides, in series [4], the concentration for half-maximal inhibition (IC50) was over 1 µM.
As for `CCCNCC(F)(P(=O)(O)O)P(=O)(O)O`, the EC50 in the series on Trypanosoma cruzi is over 10 µM. The IC50 in series [1] came out at 0.245 µM; in series [4] it was 0.06 µM.
On to `O=C(Cn1ccnc1[N+](=O)[O-])NCc1ccccc1` [BENZNIDAZOLE], for which, in the series with Trypanosoma cruzi, the EC50 turned out to be 2.58 µM.
In the case of `O=P(O)(O)C(CNC1CCCCCC1)P(=O)(O)O`, the EC50 in the series with Toxoplasma gondii [2] was over 20 µM.
Take `CCCCCCCCCCCCS(=O)(=O)CC(P(=O)(O)O)P(=O)(O)O`: the EC50 in the series on Toxoplasma gondii [2] is 0.93 µM.
The same measure, in the same setting: as for `CCCCCCCC[S+](C)CC(P(=O)(O)O)P(=O)(O)O` (centres undefined), the figure is 7 µM.
Take `CCCCCNCC(F)(P(=O)(O)O)P(=O)(O)O`: the EC50 in the series on Trypanosoma cruzi and in the series with Toxoplasma gondii [2] was over 10 µM in each case. In addition, the IC50 in series [1] turned out to be 0.299 µM; in series [4] it was 0.611 µM.
As to `CCCCCCNCC(F)(P(=O)(O)O)P(=O)(O)O`, the EC50 in the series with Trypanosoma cruzi and with Toxoplasma gondii [2] was over 10 µM each time. The results for the half-maximal inhibitory concentration (IC50) in series [1] and in series [4] were 0.131 µM and 0.915 µM, respectively.
For `CCCCCCCCCCSCC(P(=O)(O)O)P(=O)(O)O`, the EC50 in the series on Toxoplasma gondii [2] is 1.8 µM.
For the compound `CCCCCCCCCCNCC(F)(P(=O)(O)O)P(=O)(O)O`, the IC50 amounted to 0.08 µM in series [1] and 0.136 µM in series [4]. Besides, the EC50 with Toxoplasma gondii [2] is 2.26 µM. Further, in series [3], the CC50 stood at 20 µM.
As for `CCCCCCCSCC(P(=O)(O)O)P(=O)(O)O`, the EC50 in the series on Trypanosoma cruzi was over 20 µM; in the series on Toxoplasma gondii [2], 0.97 µM.
On to `CCCCCCCCCCCSCC(P(=O)(O)O)P(=O)(O)O`, for which the EC50 in the series on Toxoplasma gondii [2] is 0.54 µM.

In general, IC50 refers to the concentration that gives 50% inhibition. As usually defined, the ED50 is the midpoint of the dose-response relation.

The values above are taken from ChEMBL document CHEMBL4385638, “Synthesis and biological evaluation of 1-alkylaminomethyl-1,1-bisphosphonic acids against Trypanosoma cruzi and Toxoplasma gondii” (Bioorg Med Chem, 2019).
